Earlier results, collected in patent US20040067887A1, “Human VNO receptor (R1)” (priority 2000, published 2004).

Legend:
[1] = test system: human VNO; details: for physiological responses after administration to the human VNO: administered to the human VNO
[2] = test system: human brain; details: human volunteers; delivered non-specifically to the nasal cavity; no detectable odor (Sobel et al. 1999)

Compound	physiological responses after administration to the human VNO [1]	site specificity of physiological responses in vivo ([1]; human subjects, VNO versus olfactory or respiratory epithelium (Monti-Bloch et al. 1994))	activation of brain regions detected by fMRI [2]
C[C@@]12C=CC[C@H]1[C@@H]1CCC3=CC(=O)CC[C@]3(C)[C@H]1CC2 [androsta-4,16-dien-3-one]	induce bradycardia, bradypnea, increases in core body temperature, and other physiological responses	–	–
CC(=O)Oc1ccc2c(c1)CC[C@@H]1[C@@H]2CC[C@]2(C)C=CC[C@@H]12 [PH15, estra-1,3,5(10),16-tetraen-3yl acetate]	–	induces physiological responses in vivo only when applied specifically to the VNO	dose-dependent activation of the anterior medial thalamus, the inferior frontal gyrus, and other regions of the human brain
C[C@@]12C=CC[C@H]1[C@@H]1CCc3cc(O)ccc3[C@H]1CC2 [estra-1,3,5(10),16-tetraen-3-ol]	induce bradycardia, bradypnea, increases in core body temperature, and other physiological responses	–	–
